Results from patent US20070154543A1, “Solid preparation for oral use” (KYORIN PHARMACEUTICAL CO., LTD, priority 2003, published 2007).

Assay: Pharmacokinetics of KRP-101 in plasma after oral or intravenous administration
Assay type: in vivo
Conditions: male Beagle dog, intravenous, 0.5 mg/kg
Protocol: To a male Beagle dog, one tablet of the film-coated tablets obtained in Example 1 was administered orally or 0.5 mg/kg of KRP-101 were administered intravenously, and the concentration of KRP-101in plasma was measured until 24 hours after administration.

With `CC[C@@H](Cc1ccc(OC)c(C(=O)NCc2ccc(Oc3ccc(F)cc3)cc2)c1)C(=O)O` [KRP-101, (S)-2-[3-[N-[4-(4-fluorophenoxy)benzyl]carbamoyl]-4-methoxybenzyl]butanoic acid] the “AUC (Total area under concentration-time curve)” value was 1354 ng·h/mL and the half-life (plasma, read-out: T½ (Elimination half-life) (converted)) was 2.2 h.
